Results from ChEMBL document CHEMBL1833834, “Clonal Rett Syndrome cell lines to test compounds for activation of wild-type MeCP2 expression” (Bioorg Med Chem Lett, 2011).
Calls of active or inactive are those of the source. No cut-off for these calls is given here.

Tests used:
Assay type in all cases: functional, cell-based
[1] = Reactivation of MeCp2 […] expression in human GM11272 cells after 6 days by PCR method
[2] = Reactivation of MeCp2 […] expression in human GM11272 cells at 1 to 100 nM by PCR method
[3] = Reactivation of MeCp2 […] expression in human GM11272 cells at 10 to 100 nM by PCR method
[4] = Reactivation of MeCp2 […] expression in human GM11272 cells at 1 to 10000 nM by PCR method

SMILES | Activity [1] | Activity [2] | also measured
Nc1ccccc1NC(=O)c1ccc(CNC(=O)OCc2cccnc2)cc1 | inactive |  | 
CC(/C=C/C(=O)NO)=C\[C@@H](C)C(=O)c1ccc(N(C)C)cc1 |  | inactive | 
CCC(=O)CCCCC[C@@H]1NC(=O)[C@H]2CCCCN2C(=O)[C@H]([C@@H](C)CC)NC(=O)[C@H](Cc2cn(OC)c3ccccc23)NC1=O | inactive |  | 
O=c1ncccn1[C@@H]1O[C@H](CO)[C@@H](O)[C@H]1O |  | inactive | 
O=C(O)[C@H](Cc1c[nH]c2ccccc12)N1C(=O)c2ccccc2C1=O |  |  | Activity [3]: inactive
O=C(CCCCCCC(=O)Nc1ccccc1)NO |  |  | Activity [3]: inactive
CCCC(CCC)C(=O)O |  |  | Activity [4]: inactive
Nc1ncn([C@H]2C[C@H](O)[C@@H](CO)O2)c(=O)n1 | inactive | inactive | 
Cc1[nH]c2ccccc2c1CCNCc1ccc(/C=C/C(=O)NO)cc1 |  | inactive | 
